Laboratory results reported in PubChem BioAssay (NCI).
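Five compound concentrations were applied to cells in 96-well plates for 48 hours; endpoints were derived by simple linear interpolation of the resulting dose-response curve. Definition used: TGI = concentration required for complete inhibition of growth.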

What was measured:
Test in all cases: growth of human tumour cells (NCI), 48 h
SK-MEL-2 melanoma = tested on: SK-MEL-2 melanoma
CAKI-1 renal = tested on: CAKI-1 renal
UACC-257 melanoma = tested on: UACC-257 melanoma
OVCAR-4 ovarian = tested on: OVCAR-4 ovarian
PC-3 prostate = tested on: PC-3 prostate
SNB-75 CNS = tested on: SNB-75 CNS
COLO 205 colon = tested on: COLO 205 colon
BT-549 breast = tested on: BT-549 breast
ACHN renal = tested on: ACHN renal
HCC-2998 colon = tested on: HCC-2998 colon
MCF7 breast = tested on: MCF7 breast
MOLT-4 leukemia = tested on: MOLT-4 leukemia
CCRF-CEM leukemia = tested on: CCRF-CEM leukemia
IGROV1 ovarian = tested on: IGROV1 ovarian
SF-295 CNS = tested on: SF-295 CNS
KM12 colon = tested on: KM12 colon
MDA-MB-435 = tested on: MDA-MB-435
K-562 leukemia = tested on: K-562 leukemia
T-47D breast = tested on: T-47D breast
HL-60(TB) leukemia = tested on: HL-60(TB) leukemia
UACC-62 melanoma = tested on: UACC-62 melanoma
HCT-15 colon = tested on: HCT-15 colon
TK-10 renal = tested on: TK-10 renal
LOX IMVI melanoma = tested on: LOX IMVI melanoma
NCI/ADR-RES ovarian = tested on: NCI/ADR-RES ovarian
NCI-H23 lung = tested on: NCI-H23 lung
UO-31 renal = tested on: UO-31 renal
SW-620 colon = tested on: SW-620 colon
A549 NSCLC = tested on: A549 NSCLC
SF-539 CNS = tested on: SF-539 CNS
SK-OV-3 ovarian = tested on: SK-OV-3 ovarian
HS 578T breast = tested on: HS 578T breast
OVCAR-5 ovarian = tested on: OVCAR-5 ovarian
SR leukemia = tested on: SR leukemia
RPMI-8226 leukemia = tested on: RPMI-8226 leukemia
SNB-19 CNS = tested on: SNB-19 CNS
NCI-H226 lung = tested on: NCI-H226 lung
DU-145 prostate = tested on: DU-145 prostate
EKVX NSCLC = tested on: EKVX NSCLC
MDA-N = tested on: MDA-N
SK-MEL-28 melanoma = tested on: SK-MEL-28 melanoma
RXF 393 renal = tested on: RXF 393 renal
MALME-3M melanoma = tested on: MALME-3M melanoma
MDA-MB-231 breast = tested on: MDA-MB-231 breast
OVCAR-3 ovarian = tested on: OVCAR-3 ovarian
A498 renal = tested on: A498 renal
M14 melanoma = tested on: M14 melanoma
786-0 renal = tested on: 786-0 renal
HCT-116 colon = tested on: HCT-116 colon
OVCAR-8 ovarian = tested on: OVCAR-8 ovarian
U251 CNS = tested on: U251 CNS
NCI-H522 lung = tested on: NCI-H522 lung
SF-268 CNS = tested on: SF-268 CNS
SN12C renal = tested on: SN12C renal
NCI-H460 lung = tested on: NCI-H460 lung
HOP-92 NSCLC = tested on: HOP-92 NSCLC
HOP-62 NSCLC = tested on: HOP-62 NSCLC
HT29 colon = tested on: HT29 colon
SK-MEL-5 melanoma = tested on: SK-MEL-5 melanoma

## COC(=O)c1ccccc1NC(=S)NN(C)C
SK-MEL-2 melanoma
  TGI: > 100 µM
CAKI-1 renal
  TGI: > 100 µM
UACC-257 melanoma
  TGI: > 100 µM
OVCAR-4 ovarian
  TGI: > 100 µM
PC-3 prostate
  TGI: > 100 µM
SNB-75 CNS
  TGI: > 100 µM
COLO 205 colon
  TGI: > 100 µM
BT-549 breast
  TGI: > 100 µM
ACHN renal
  TGI: > 100 µM
HCC-2998 colon
  TGI: > 100 µM
MCF7 breast
  TGI: > 100 µM
MOLT-4 leukemia
  TGI: > 100 µM
CCRF-CEM leukemia
  TGI: > 100 µM
IGROV1 ovarian
  TGI: > 100 µM
SF-295 CNS
  TGI: > 100 µM
KM12 colon
  TGI: > 100 µM
MDA-MB-435
  TGI: > 100 µM
K-562 leukemia
  TGI: > 100 µM
T-47D breast
  TGI: > 100 µM
HL-60(TB) leukemia
  TGI: > 100 µM
UACC-62 melanoma
  TGI: > 100 µM
HCT-15 colon
  TGI: > 100 µM
TK-10 renal
  TGI: > 100 µM
LOX IMVI melanoma
  TGI: > 100 µM
NCI/ADR-RES ovarian
  TGI: > 100 µM
NCI-H23 lung
  TGI: > 100 µM
UO-31 renal
  TGI: > 100 µM
SW-620 colon
  TGI: > 100 µM
A549 NSCLC
  TGI: > 100 µM
SF-539 CNS
  TGI: > 100 µM
SK-OV-3 ovarian
  TGI: > 100 µM
HS 578T breast
  TGI: > 100 µM
OVCAR-5 ovarian
  TGI: > 100 µM
SR leukemia
  TGI: > 100 µM
RPMI-8226 leukemia
  TGI: > 100 µM
SNB-19 CNS
  TGI: > 100 µM
NCI-H226 lung
  TGI: > 100 µM
DU-145 prostate
  TGI: > 100 µM
EKVX NSCLC
  TGI: > 100 µM
MDA-N
  TGI: > 100 µM
SK-MEL-28 melanoma
  TGI: > 100 µM
RXF 393 renal
  TGI: > 100 µM
MALME-3M melanoma
  TGI: > 100 µM
MDA-MB-231 breast
  TGI: > 100 µM
OVCAR-3 ovarian
  TGI: > 100 µM
A498 renal
  TGI: > 100 µM
M14 melanoma
  TGI: > 100 µM
786-0 renal
  TGI: > 100 µM
HCT-116 colon
  TGI: > 100 µM
OVCAR-8 ovarian
  TGI: > 100 µM
U251 CNS
  TGI: > 100 µM
NCI-H522 lung
  TGI: > 100 µM

## Cc1nc(N)sc1C(=O)Nc1ncn[nH]1
SK-MEL-2 melanoma
  TGI: > 100 µM
CAKI-1 renal
  TGI: > 100 µM
UACC-257 melanoma
  TGI: > 100 µM
OVCAR-4 ovarian
  TGI: > 100 µM
PC-3 prostate
  TGI: > 100 µM
SF-268 CNS
  TGI: > 100 µM
COLO 205 colon
  TGI: > 100 µM
BT-549 breast
  TGI: > 100 µM
SN12C renal
  TGI: > 100 µM
ACHN renal
  TGI: > 100 µM
HCC-2998 colon
  TGI: > 100 µM
MCF7 breast
  TGI: > 100 µM
MOLT-4 leukemia
  TGI: > 100 µM
IGROV1 ovarian
  TGI: > 100 µM
SF-295 CNS
  TGI: > 100 µM
KM12 colon
  TGI: > 100 µM
MDA-MB-435
  TGI: > 100 µM
K-562 leukemia
  TGI: > 100 µM
T-47D breast
  TGI: > 100 µM
HL-60(TB) leukemia
  TGI: 49.9 µM
UACC-62 melanoma
  TGI: > 100 µM
HCT-15 colon
  TGI: > 100 µM
NCI-H460 lung
  TGI: > 100 µM
TK-10 renal
  TGI: > 100 µM
LOX IMVI melanoma
  TGI: > 100 µM
NCI/ADR-RES ovarian
  TGI: > 100 µM
NCI-H23 lung
  TGI: > 100 µM
UO-31 renal
  TGI: > 100 µM
HOP-92 NSCLC
  TGI: > 100 µM
SW-620 colon
  TGI: > 100 µM
A549 NSCLC
  TGI: > 100 µM
SF-539 CNS
  TGI: > 100 µM
SK-OV-3 ovarian
  TGI: > 100 µM
HS 578T breast
  TGI: > 100 µM
OVCAR-5 ovarian
  TGI: > 100 µM
SR leukemia
  TGI: 70 µM
RPMI-8226 leukemia
  TGI: > 100 µM
HOP-62 NSCLC
  TGI: > 100 µM
SNB-19 CNS
  TGI: > 100 µM
NCI-H226 lung
  TGI: > 100 µM
DU-145 prostate
  TGI: > 100 µM
EKVX NSCLC
  TGI: > 100 µM
MDA-N
  TGI: > 100 µM
SK-MEL-28 melanoma
  TGI: > 100 µM
RXF 393 renal
  TGI: > 100 µM
HT29 colon
  TGI: > 100 µM
MDA-MB-231 breast
  TGI: > 100 µM
OVCAR-3 ovarian
  TGI: > 100 µM
M14 melanoma
  TGI: > 100 µM
786-0 renal
  TGI: > 100 µM
HCT-116 colon
  TGI: > 100 µM
OVCAR-8 ovarian
  TGI: > 100 µM
U251 CNS
  TGI: > 100 µM
SK-MEL-5 melanoma
  TGI: > 100 µM
NCI-H522 lung
  TGI: > 100 µM
